Read-outs that look alike come from different tables or passages of the source. Marks after values point to notes of the source that are not given here.
What was measured:
[1] = rat at GD20; ref Varma and Ramakrishnan [1985]; cited from earlier work
[2] = in vivo; details: female, rat GD11, allometrically scaled from GD20 value of Varma and Ramakrishnan [1985], read-out: CLPL, transplacental maternal-foetal clearance rate (converted)
[3] = system: Caco-2 cells; assay: in vitro
Method: (§1) Caco-2 cells (passages 37–40) were cultured in DMEM containing 25 mM HEPES (pH 7.4) supplemented with 10% (v/v) heat-inactivated FCS, 4500 mg/l glucose, 2 mM L-glutamine, 1% (v/v) minimal essential medium non-essential amino acids, 10,000 U/ml penicillin and 10 mg/ml streptomycin and maintained in polystyrene cell culture flasks (Corning, Amsterdam, the Netherlands) in a 5% CO2-humidified atmosphere at 37 °C. Cells were harvested after exposure to a trypsin–EDTA solution. Next, the cells were seeded onto Transwell® inserts (0.4 µm pored polycarbonate membrane, 12 mm diameter), at a density of 10^5 cells/cm^2. Cell culture medium (0.5 and 1.5 ml in the apical and basolateral compartment, respectively) was changed every two days.
(§2) Transport experiments were performed between day 20 and 23 post-seeding. Prior to the transport experiments, the cell culture medium was removed and cells were equilibrated in HBSS for 30–45 min in a 5% CO2-humidified atmosphere at 37 °C. In these 45 min, the integrity of the cell monolayer was examined by measuring the Trans Epithelial Electrical Resistance (TEER) of the cell layer using a Millicell ERS-2 Volt–Ohm Meter (Millipore, USA). Only cell layers with a TEER value between 500 and 1000 Ω cm^2 were used for the transport experiments. The transport buffer for the apical compartment consisted of HBSS containing 10 mM HEPES (pH 6.5) and 10 mM sodium taurocholate and the transport buffer for the basolateral compartment consisted of HBSS (pH 7.4) with 30 mg/ml bovine serum albumin. At first, 1.5 ml pre-warmed (37 °C) transport buffer was added to the basolateral compartment. Then, the transport experiments were started by adding 0.5 ml pre-warmed transport buffer containing the test compound (100 µM) to the apical compartment. After 60-min incubation in a 5% CO2-humidified atmosphere at 37 °C, a 75 µl sample was taken from the basolateral compartment and then from the apical compartment. Each sample was added to 150 µl ice-cold methanol, vortexed and put on ice immediately. […] Samples were analysed by UPLC–PDA (see “Quantification of analytes” section) for the presence of the test compound and possible metabolites.
(§3) TEER values were also measured at the end of the transport experiment, during the first washing step and compared to the TEER values measured before the transport experiment in order to assess toxicity of the test compound to the cell monolayer. […]
(§4) The apparent permeability coefficients (P app; cm/s) were calculated using the following algorithm: Papp=ΔQ/Δt/A∗C0 where P app is the apparent permeability coefficient (cm/s), ΔQ/Δt (nmol/s) is the amount of the test compound transported to the receiver chamber in a certain time period, A is the transwell membrane surface area (cm^2) and C 0 is the initial concentration of the test compound in the donor compartment (µM).
(§5) In order to assess the validity of the P app calculations for this experiment, the linearity of transport from the apical to the basolateral side was verified by taking samples from the basolateral side at t = 15, 30, 60 and 90 min, at a test concentration of 100 µM. […] The recovery of the test compound in each transport experiment was calculated with a mass balance equation, taking into account the amount of the test compound in the apical and basolateral compartment and the amount in the cells and/or filter of the Transwell® insert.

[4] = system: BeWo cells; assay: In vitro placental transport study (BeWo b30 transwell)
Method: (§6) BeWo cells (passages 28–31) were cultured in DMEM with […] and supplemented with 10% (v/v) heat-inactivated FCS, 2 mM L-glutamine, 10,000 U/ml penicillin and 10 mg/ml streptomycin and maintained in polystyrene cell culture flasks (Corning, Amsterdam, the Netherlands) in a 5% CO2-humidified atmosphere at 37 °C. Cells were harvested after exposure to a trypsin–EDTA solution. Next, the cells were seeded onto Transwell® inserts (0.4-µm pored polycarbonate membrane, 12 mm diameter), with a density of 10^5 cells/cm^2. Cell culture medium (0.5 and 1.5 ml in the apical and basolateral compartment, respectively) was changed daily.
(§7) Transport experiments were performed 6 days post-seeding. The transport buffer consisted of HBSS with 30 mg/ml bovine serum albumin (apical compartment) and 10 mg/ml bovine serum albumin (basolateral compartment) representing mid- and late gestational maternal and embryonic/foetal rat plasma albumin levels, respectively (Honda et al. [2008]; Mcmullin et al. [2008]; Yeoh and Morgan [1974]). The transport experiments were performed for the same compounds and according to the same method as described for the Caco-2 transport experiments, except that only cell layers with a TEER value >190 Ω cm^2 were used for the transport experiments. The BeWo transport studies encompassed four independently performed experiments including two replicates in each assay. Samples were analysed by UPLC–PDA (see “Quantification of analytes” section) for the presence of the test compound and possible metabolites. The apparent permeability coefficients were calculated using the same method as described for the Caco-2 transport experiments.

[5] = system: rat; assay: In vitro PBK-based reverse dosimetry (predicted developmental toxicity); details: BMDL05 based on Cmax
Method: (§8) In vitro concentration–response data obtained with the EST were translated to in vivo dose–response values by applying PBK-based reverse modelling, performed as described by Strikwold et al. ([2013]) with some modifications. […] In vivo albumin and fat levels that are used in the extrapolation rules were adjusted to values that correspond to embryos/foetuses during mid-/late gestation. […] The vitro lipid fraction and albumin levels resembling the situation in the EST were 0.04% and 4.8 mg/ml, respectively (Verwei et al. [2006]).
(§9) The BMDL05 values of the in vivo study were derived using the BMDS version 2.6.

[6] = cited from earlier work; for Concentration in EST culture medium over time: without cells, ref Strikwold et al. [2012]
[7] = system: rat liver microsomes; assay: in vitro; details: for Vmax(app) glucuronidation (± SD): rat liver microsomes, 10 mM UDPGA, alamethicin activated
Method: (§10) The formation of glucuronide metabolites of the p-substituted phenols was investigated in incubations with rat liver microsomes. […] To obtain maximum glucuronidation activity, the microsomes were activated by preincubating the incubation mixture with 0.025 mg/ml alamethicin added from a 200 times concentrated stock solution in methanol, during 15 min on ice (Fisher et al. [2000]). Subsequently, the incubations were started after a 1-min preincubation at 37 °C by addition of the substrate from a 200 times concentrated stock solution in DMSO and incubated in a shaking water bath at 37 °C for 45 min. The reactions were terminated by addition of ice-cold acetonitrile (20% v/v). In the blank incubation mixtures, UDPGA was omitted. Samples were analysed by UPLC–PDA (see “Quantification of analytes” section). No reference standards of the glucuronide metabolites were commercially available. […] At first, retention times from the UPLC–PDA chromatograms of the parent compound of the blank incubation were compared with the retention times of newly appearing peaks in chromatograms of the incubation mixtures, as the glucuronide conjugates are expected to elute earlier compared with their parent compounds due do their increased hydrophilicity. […] For this purpose, a volume of 10 µl of the incubation mixture of the glucuronidation assay (that was not terminated by the addition of ice-cold acetonitrile) was added to 90 µl of 200 mM potassium phosphate (pH 6.2). Then, 4 µl of glucuronidase (200 units/ml) was added, and the mixtures were incubated for 60 min in a shaking water bath at 37 °C. The reactions were terminated by addition of ice-cold acetonitrile (20% v/v) and were put on ice. Control samples were treated under the same conditions, but without glucuronidase.
(§11) The conditions of the incubation assays were optimised to obtain linear reaction rates with respect to incubation time and protein concentration and non-limiting cofactor levels were applied. […] To obtain maximum glucuronidation activity, the microsomes were activated by preincubating the incubation mixture with 0.025 mg/ml alamethicin added from a 200 times concentrated stock solution in methanol, during 15 min on ice (Fisher et al. [2000]).
(§12) Kinetic constants for the glucuronidation of the p-substituted phenols were derived by fitting the data to the standard Michaelis–Menten equation; v=Vmax∗S/Km+[S] in which [S] represents the substrate concentration, V max the maximum velocity and K m the Michaelis–Menten constant for the formation of the glucuronide metabolites. Data analysis was accomplished using GraphPad Prism 5.0 software (GraphPad, San Diego, CA, USA). […] The in vivo K m value was assumed to be the same to the in vitro K m value.
(§13) Samples from the BeWo and Caco-2 transport experiments were centrifuged at 13,000 rpm at 5 °C for 15 min. Next 7.5 µl of the supernatant of each sample was analysed by UPLC (Waters Acquity). Samples from the glucuronidation assays were centrifuged at 15,000 rpm at 5 °C for 5 min. […] All samples, except those from transport studies with fluorescein, were analysed on a Waters BEH C18 1.7 µm column, 2.1 × 50 mm, with nanopure water (0.1% TFA) (A) and pure acetonitrile (B) applying a gradient elution. The start condition was 100:0 (A:B), changing to 90:10 from 1 to 2 min, then to 10:90 from 2 to 4 min (or from 2 to 3 min when analysing samples for p-heptyloxyphenylglucuronide), remaining at this ratio for 0.5 min and then rapidly declining to the start condition. The flow rate was 0.6 ml/min.

[8] = In vitro intestinal transport study (Caco-2 transwell); details: human, Caco-2
Method: as §1, §2, §3, §4, §5

[9] = system: ES-D3 cells; details: ref Strikwold et al. [2012]; cited from earlier work
[10] = In vitro placental transport study (BeWo b30 transwell); details: human
Method: as §6, §7

[11] = in vitro; details: rat, pH 7.4
Method: as §10, §11, §12, §13

[12] = system: Balb/c 3T3 clone A31; details: BSA levels reflecting in vitro and in vivo situation
Method: as §8

[13] = In vivo developmental toxicity study, rats exposed at GD11; details: female, rat
Excerpt: as §9

[14] = system: rat liver microsomes; details: cited from earlier work
[15] = rat, ref Humphrey et al. [1980], cited from earlier work
[16] = system: whole embryo culture; details: cited from earlier work
[17] = system: albumin; details: cited from earlier work
[18] = P app ratio to antipyrine multiplied by antipyrine clearance 0.18 l/h, GD11

Row | SMILES | ka, predicted oral absorption coefficient ([3]; Caco-2) [h⁻¹] | CLPL, predicted rat transplacental clearance [4] [L/h] | Potency ratio (phenol / p-substituted phenol), in vitro PBK approach [5] [fold] | Concentration in EST culture medium over time [6] | Km [7] [µM] | Scaled Vmax(app) [7] [µmol/h/g liver] | Vmax(app) glucuronidation (± SD) [7] | Papp A→B at 60 min, 100 µM [8] [×10⁻⁶ cm/s] | Papp A→B at 60 min, 100 µM [10] [×10⁻⁶ cm/s] | CLPL, predicted rat transplacental clearance [4, 18] [L/h] | also measured
1 | Cc1cc(=O)n(-c2ccccc2)n1C [Antipyrine, antipyrine] | – | – | – | – | – | – | – | – | – | – | Transplacental clearance value [1]: 7.47 mL/min/kg; clearance [2]: 3 mL/min
2 | CC(=O)c1ccc(O)cc1 [p-Methylketophenol, p-methylketophenol] | 8.18 | 0.12 | 0.5 | stable | 138 ± 17 | 365 | 160 ± 4.4 nmol/min/mg microsomal protein | – | – | – | Catalytic efficiency (Vmax/Km) [7]: 1.16 ml/min/mg protein; Scaled catalytic efficiency [7]: 2.65 l/h/g liver
3 | O=C1OC2(c3ccc(O)cc3Oc3cc(O)ccc32)c2ccccc21 [fluorescein, reference compound] | – | – | – | – | – | – | – | – | – | – | P app / transport fold lower than antipyrine ([4]; BeWo): 11 fold
4 | Oc1ccc(F)cc1 [p-Fluorophenol, p-fluorophenol] | – | – | 0.7 | decreased in time | – | – | 101 ± 1.6 nmol/min/mg microsomal protein | 47.7 ± 13.8 | 34.2 ± 3.3 | 0.15 | ka, predicted oral absorption coefficient ([3]; rat, Caco-2, 100 µM): 7.52 h⁻¹; Potency ratio / difference in BMC50 (phenol / p-substituted phenol) in the EST [9]: 1.9 fold; Catalytic efficiency (Vmax/Km) ([7]; Sprague-Dawley, rat, pH 7.4): 0.32 ml/min/mg protein; Scaled catalytic efficiency ([7]; Sprague-Dawley, rat, pH 7.4): 0.74 l/h/g liver; Scaled Vmax(app) ([7]; rat, pH 7.4): 231 µmol/h/g liver; Km at 10 min [11]: 314 ± 16 µM
5 | Oc1ccccc1 [Phenol] | – | – | – | decreased in time | – | – | – | 48.4 ± 8.6 | 41.6 ± 3.4 | 0.19 | Effect of bovine serum albumin level on in vitro cytotoxicity [12]: not affected; NOAEL [13]: 333 mg/kg; Km ([14]; read-out: Km(app) glucuronidation (± SD), ref Strikwold et al. [2013]): 465 ± 66 µM; Vmax(app) glucuronidation (± SD) ([14]; ref Strikwold et al. [2013]): 90 ± 4 nmol/min/mg microsomal protein; P app fold higher than antipyrine ([4]; BeWo): 1.03 fold; ka, uptake rate from in situ intestinal perfusion [15]: 7.62^b /h; ka, uptake rate from in situ intestinal perfusion ([15]; listed as phenol): 7.62 h⁻¹; Loss in the EST ([6]; 10-day EST, ref Strikwold et al. [2013]): 39%; Scaled catalytic efficiency ([7]; scaled to rat liver): 0.44 l/h/g liver; Scaled Vmax(app) ([7]; scaled with microsomal protein yield 38 mg/g rat liver): 205 µmol/h/g liver
6 | CCCCCCCOc1ccc(O)cc1 [p-Heptyloxyphenol, p-heptyloxyphenol] | 6.34 | 0.026 | – | stable | 2.1 ± 0.6 | 137 | 60 ± 4.5 nmol/min/mg microsomal protein | – | – | – | Embryotoxic potency when hepatocytes were added [16]: greatly reduced; Fraction bound to albumin [17]: 0.99
